As a reminder, the Ki is a dissociation constant, usually derived from enzyme kinetics or from competition with a known ligand. One may read the melting point as the temperature of the solid-liquid transition.

The values below come from patent US6337344B1, “Indole derivatives as inhibitors or factor Xa” (Aventis Pharma Deutschland GmbH, priority 1997, dated 2002).

In one series the target is factor Xa. The following applies: values of known factor Xa inhibitors stated in the background; cited from earlier work.
The next series deals with T1, human factor Xa (Homo sapiens, UniProt P00742).
T1 construct: purchased Enzyme Research Laboratories, Inc; South Bend, Ind
Nature of the series: Factor Xa assay (Test 1, a.), chromogenic substrate S-2765. It is filed as biochemical. Here is the method:
Purified enzymes are used in chromogenic assays. To determine the inhibition constant Ki, the IC50 value is corrected for competition with substrate using the formula
Ki'IC50×(1/{1+((substrate concentration)/substrate Km)})
wherein Km is the Michaelis-Menten constant (Chen and Prusoff, Biochem. Pharmacol. 22 (1973), […] which is incorporated herein by reference).
TBS-PEG buffer (50 mM Tris-Cl, pH 7.8, 200 mM NaCl, 0.05% (w/v) PEG-8000, 0.02% (w/v) NaN3) is used for this assay.
The assay is performed by pre-incubating the compound of formula I plus enzyme for 10 min. Then the assay is initiated by adding substrate to obtain a final volume of 100 μl. The initial velocity of chromogenic substrate hydrolysis is measured by the change in absorbance at 405 nm using a Bio-tek Instruments kinetic plate reader (Ceres UV900HDi) at 25° C. during the linear portion of the time course (usually 1.5 min after addition of substrate). The concentration of inhibitor that causes a 50% decrease in the rate of substrate hydrolysis is predicted by linear regression after plotting the relative rates of hydrolysis (compared to the uninhibited control) versus the log of the concentration of the compound of formula I. The enzyme concentration is 0.5 nM and substrate concentration is 140 μM.
The inhibition constants were determined as described above (Test 1, a., Factor Xa Assay).

T1 sequence (P00742 235-488 limits assumed): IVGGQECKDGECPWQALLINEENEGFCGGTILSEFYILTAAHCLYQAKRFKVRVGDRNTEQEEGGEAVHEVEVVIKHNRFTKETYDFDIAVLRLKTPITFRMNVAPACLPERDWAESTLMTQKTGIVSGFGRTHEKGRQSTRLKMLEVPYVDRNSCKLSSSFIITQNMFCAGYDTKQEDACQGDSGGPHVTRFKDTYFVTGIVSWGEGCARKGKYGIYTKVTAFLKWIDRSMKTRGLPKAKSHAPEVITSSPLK
T1 sequence (P00742 41-179 partner limits assumed): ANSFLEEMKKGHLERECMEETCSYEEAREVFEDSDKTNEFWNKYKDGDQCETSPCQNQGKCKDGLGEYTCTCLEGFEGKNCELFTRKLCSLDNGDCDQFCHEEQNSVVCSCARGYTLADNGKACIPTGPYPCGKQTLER

Take `N=C(N)c1ccc(C=C2CCCCC(=Cc3ccc(C(=N)N)cc3)C2=O)cc1` [2,7-bis-(4-amidinobenzylidene)-cycloheptanone, reference compound]: the Ki on factor Xa was around 20 nM.
Take `CC(=O)O.CC(=O)[O-].C[N+](C)(C)c1ccc(CNC(=O)c2cc3c(O)cccc3n2Cc2cccc(C(=N)N)c2)cc1` [Example 39, [4-({[1-(3-Amidino-benzyl)-4-hydroxy-1H-indole-2-carbonyl]-amino}-methyl)-phenyl]-trimethyl-ammonium acetate acetic acid salt]: the melting point was 113 °C (dec.). The Ki on human factor Xa came out at 7 nM.
For the molecule `Cc1cccc2c1cc(C(=O)NCc1cccc(C(=N)N)c1)n2Cc1cccc(C(=N)N)c1.O=C(O)C(F)(F)F.O=C(O)C(F)(F)F` [Example 47, 1-(3-Amidino-benzyl)-4-methyl-1H-indole-2-carboxylic acid 3-amidino-benzyl amide trifluoroacetic acid salt], the melting point is 242 to 243 °C. This molecule returned an inhibitory constant (Ki) on human factor Xa of 7 nM.
For `CC(=O)O.CC(=O)[O-].CC(C)(C)OC(=O)Nc1ccc2c(c1)cc(C(=O)NCc1ccc([N+](C)(C)C)cc1)n2Cc1cccc(C(=N)N)c1` [Example 58, [4-({[1-(3-Amidino-benzyl)-5-tert-butoxycarbonylamino-1H-indole-2-carbonyl]-amino}-methyl)-phenyl]-trimethyl-ammonium acetate acetic acid salt], the melting point was 146 °C (dec.). The affinity at human factor Xa corresponds to a Ki of 14 nM.
In the case of `N=C(N)c1ccc(CNC(=O)c2cc3c(O)cccc3n2Cc2cccc(C(=N)N)c2)cc1.O=C(O)C(F)(F)F.O=C(O)C(F)(F)F` [Example 78, 1-(3-Amidino-benzyl)-4-hydroxy-1H-indole-2-carboxylic acid 4-amidino-benzylamide trifluoroacetic acid salt], the melting point is 155 to 157 °C. Also, at human factor Xa, the Ki was 210 nM.
For the molecule “tick anticoagulant peptide (YNRLCIKPRDWIDECDSNEGGERAYFRNGKGGCDSFWICPEDHTGADYYSSYRDCFNACI; UniProt P17726 1-60, looked up) [TAP]”, the Ki at factor Xa was around 0.5 nM.

B1: antistasin (protein, UniProt P15358 18-136, looked up)
Antistasin: QGPFGPGCEEAGCPEGSACNIITDRCTCSGVRCRMHCPHGFQRSRYGCEFCKCRLEPMKATCDISECPEGMMCSRLTNKCDCKIDINCRKTCPNGLKRDKLGCEYCECRPKRKLIPRLS
In the case of B1, the Ki on factor Xa is 0.05 nM.
